In patent publication US4447419A, “Thiazole derivative, and pharmaceutical compositions containing it” (Ausonia Farmaceutici s.r.l., priority 1981, dated 1984):

Columns and labels:
liver regeneration = assay: Liver regeneration in partially hepathectomized rats; assay type: in vivo; settings: treated just after operation, assessed after 4 days
From the text: This study aimed to evidence whether MR 729 could affect the liver regeneration in partially hepathectomized rats.
The animals have been treated with the product under study just after their operation; the regeneration degree has been assessed after 4 days.

[1] = test system: ethionine-induced hepatic lipidic infiltration; assay: Intoxication by ethionine; assay type: in vivo; settings: rat, daily oral administration during the 8 days preceding ethionine
From the text: Also ethionine administration causes in the rat hepatic damages with respect to hepatocytes, occurring as a massive lipidic infiltration.

[2] = test system: pig's lyophilized gastric mucine; assay: In vitro mucolytic effect (method of Scheffner)
From the text: It has been followed the method described by Scheffner (Ann. N.Y. Acad. Sci. 106, 298, 1963) using as a substrate pig's lyophilized gastric mucine.

[3] = test system: time of hexobarbital induced sleep; assay: Hexobarbital induced sleep in rats intoxicated by carbon tetrachloride; assay type: in vivo
Experimental: Since the length of barbiturates induced sleep can be considered directly related to the metabolism rate of these drugs by the liver, it seemed appropiate to assess the influence of MR 729 on the time of hexobarbital induced sleep in rats intoxicated by carbon tetrachloride.
MR 729 has been administered by oral route for 4 consecutive days, at different doses; the animals were then treated with CCl4 and, after 48 hours, with hexobarbital.

[4] = test system: hepatic damage caused by α-naphtyl-isothiocyanate; assay: Intoxication by α-naphtyl-isothiocyanate; assay type: in vivo; settings: rat, contemporary oral treatment, 8 days α-naphtyl-isothiocyanate
From the text: The hepatic damage caused by 8 days prolonged administration of α-naphtyl-isothiocyanate causes in the rate impairments in respect of cellular proliferation and hypertrophy of periportal spaces.

[5] = target: T1, rat hepatic glutathione-peroxidase (GSH-P) (Rattus norvegicus, UniProt P04041); assay: In vitro inhibition of glutathione-peroxidase (glutathione/NADPH/GSH-reductase/cumene hydroperoxide system); assay type: biochemical; settings: concentration 0.025 mM
T1 construct: rat hepatic glutathione-peroxidase (GSH-P); from tissue; host or cells: rat liver
T1 sequence (P04041 1-201): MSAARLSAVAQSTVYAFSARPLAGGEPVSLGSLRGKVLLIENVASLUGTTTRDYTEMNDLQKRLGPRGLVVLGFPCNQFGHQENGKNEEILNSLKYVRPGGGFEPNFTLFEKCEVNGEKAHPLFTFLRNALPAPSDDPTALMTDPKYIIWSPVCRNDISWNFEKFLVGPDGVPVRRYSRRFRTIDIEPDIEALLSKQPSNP
Experimental: On the ground of these considerations and considering the above described pharmacological results, it has been assessed the efficacy of MR 729 in inhibiting in vitro the rat hepatic glutathione-peroxidase (GSH-P).
It has been used the system glutathione/NADPH/GSH-reductase/cumene hydroperoxide. It was shown that MR 729 inhibits of about 63% the GSH-P, at a concentration of 0.025 mM. The administration of MR 729 allows therefore a saving of endogenous glutathione and a consequent decrease of free peroxides. Compound MR 729 can be administered by oral, parenteral, rectal, aerosolic route in various forms. The compositions below are described as an example: […]

[6] = test system: lipid infiltration experimentally induced by CCl4; assay: Intoxication by CCl4, liver lipids; assay type: in vivo; settings: 12 hours fasting rats, oral route at different doses 2 hours before CCl4, sacrificed after 20 hours
Experimental: The study has been carried out on 12 hours fasting rats; MR 729 was administered by oral route at different doses 2 hours before carbon tetrachloride. The animals were sacrificed after 20 hours and the liver was removed for the determination of liver lipids.

[7] = Acute toxicity after single intraperitoneal administration; settings: mouse, in vivo, ip, mice, 95% confidence limits 307-478
From the text: The toxicity of MR 729 after single administration has been studied in mice, by injecting the product at different doses by the intraperitoneal route.

bronchial secretion = assay: In vivo mucolytic effect, sodium fluorescein method (Mawatari); settings: rat, 250 mg/kg intraperitoneal, 5 minutes before sodium fluorescein, determined after 30 minutes
Experimental: The effect of MR 729 on bronchial secretion has been studied in the rat with the method of sodium fluorescein described by Mawatari (Kagoshima Daigakeu Igakeu Zasshi, 27, 561, 1976).
The product under study has been administered by intraperitoneal route 5 minutes before the solution of sodium fluoroscein, whose amount in the bronchial secretion has been determined after 30 minutes.

[8] = target: T2, angiotensin converting enzyme (ACE) (Homo sapiens, UniProt P12821); assay: In vitro inhibition of plasma ACE in normal human serum (method of Summary et al.); assay type: biochemical; set-up: ID50 (ACE inhibition): unit not given here; settings: for ACE activity: control 30; for % Enzymatic activity: control 100
T2 construct: The plasma ACE has been determined by the method of Summary et al; from tissue; host or cells: normal human serum
Experimental: The plasma ACE has been determined by the method of Summary et al. (Clin. Sci. 50, 321, 1976) using histidyl-glycyl-histidine as a substrate.
Tests have been carried out with 20 ml of normal human serum.
A 0.1 M aqueous solution of MR 729 has been used.

[9] = MR 729 20 μl (0.1 M aqueous solution)
[10] = MR 729 50 μl (0.1 M aqueous solution)
[11] = MR 729 100 μl (0.1 M aqueous solution)

T2 sequence (P12821 30-1232 limits assumed): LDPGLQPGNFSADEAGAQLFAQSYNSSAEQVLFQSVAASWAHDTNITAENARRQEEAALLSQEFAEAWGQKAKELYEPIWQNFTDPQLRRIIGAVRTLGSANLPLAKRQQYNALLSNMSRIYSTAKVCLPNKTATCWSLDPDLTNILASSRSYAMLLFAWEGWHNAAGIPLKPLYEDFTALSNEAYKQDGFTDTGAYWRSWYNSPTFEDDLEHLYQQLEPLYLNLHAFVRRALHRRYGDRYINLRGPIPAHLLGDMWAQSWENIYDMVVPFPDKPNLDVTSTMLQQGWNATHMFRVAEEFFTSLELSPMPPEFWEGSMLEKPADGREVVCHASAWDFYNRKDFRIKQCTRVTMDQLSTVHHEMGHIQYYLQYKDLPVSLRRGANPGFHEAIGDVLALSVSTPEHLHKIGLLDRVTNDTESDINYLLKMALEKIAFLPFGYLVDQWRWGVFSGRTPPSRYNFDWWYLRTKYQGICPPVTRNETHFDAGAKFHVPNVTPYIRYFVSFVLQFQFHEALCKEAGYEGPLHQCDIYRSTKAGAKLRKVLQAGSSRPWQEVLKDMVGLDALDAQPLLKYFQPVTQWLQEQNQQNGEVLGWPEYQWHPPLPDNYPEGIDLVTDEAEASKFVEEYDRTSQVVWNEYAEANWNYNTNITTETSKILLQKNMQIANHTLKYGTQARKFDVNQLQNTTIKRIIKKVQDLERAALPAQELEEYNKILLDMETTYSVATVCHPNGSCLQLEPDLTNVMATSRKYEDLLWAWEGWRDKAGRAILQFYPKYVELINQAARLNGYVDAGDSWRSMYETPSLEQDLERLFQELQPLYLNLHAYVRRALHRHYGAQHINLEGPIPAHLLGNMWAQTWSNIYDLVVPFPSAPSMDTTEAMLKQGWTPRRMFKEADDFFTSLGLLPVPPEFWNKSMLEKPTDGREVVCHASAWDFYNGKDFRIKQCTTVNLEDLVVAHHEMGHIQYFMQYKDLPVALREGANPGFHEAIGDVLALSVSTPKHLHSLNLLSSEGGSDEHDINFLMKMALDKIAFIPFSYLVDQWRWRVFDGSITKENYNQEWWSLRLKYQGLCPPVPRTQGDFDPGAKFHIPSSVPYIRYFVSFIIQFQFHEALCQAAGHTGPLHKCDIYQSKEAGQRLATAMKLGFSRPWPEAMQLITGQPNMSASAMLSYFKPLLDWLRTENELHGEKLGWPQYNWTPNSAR

## CC(S)C(=O)NCC(=O)N1CSCC1C(=O)O (stereo not shown) [MR 729, 3-[N-(2-mercapto-propionyl-amino-acetyl)]-tetrahydro-thiazolyl-4-carboxylic acid]
Liver regeneration
  Effect on liver regeneration: acts in a positive way on the regeneration process, without however a clear dose-effect relationship
[1]
  Antagonism of ethionine-induced hepatic lipidic infiltration: effective in antagonizing, with a dose-related intensity, the establishment of this pathology
[2]; pig gastric mucine, according to the considered dose
  Decrease of viscosity: 17-35%
[2]; same experimental conditions, according to the doses
  Mucolytic activity higher than equiponderant doses of N-acetyl-S-cysteine: 35-50%
[3]; oral 4 days, at highest doses
  Sleeping times: practically within normal limits
[3]; oral route for 4 consecutive days at different doses, then CCl4, hexobarbital after 48 hours
  Inhibition of CCl4-induced prolongation of hexobarbital sleeping time: inhibits the remarkable prolongation of sleeping time
[4]
  Histological examination of biliary ducts and parenchyma: structure of biliary ducts in the treated animals was practically unchanged
  Inhibition of hepatic pathology caused by α-naphtyl-isothiocyanate: inhibits the development of such pathology
[5]
  inhibition at 25 µM: ~63%
[6]
  Inhibition of liver lipid infiltration induced by CCl4: able to inhibit, in a dose-dependent way, the lipid infiltration
[7]
  LD50: 395 mg/kg
Bronchial secretion
  Bronchosecretolytic activity relative to carboxymethylcysteine 500 mg/kg i.p.: fivefold higher activity
[8]; [9]
  ACE activity: 9 nmol/10 min/20 μl
  % Enzymatic activity: 30%
[8]; [10]
  ACE activity: 7 nmol/10 min/20 μl
  % Enzymatic activity: 23%
[8]; [11]
  ACE activity: 3 nmol/10 min/20 μl
  % Enzymatic activity: 10%
[8]; in vitro, normal human serum, 0.1 M aqueous solution of MR 729
  ID50 (ACE inhibition): 60
